Test results taken from PubChem BioAssay AID1259407 (Chemical Carcinogenesis Research Information System (CCRIS), 2018).
Calls of active or inactive are those of the source. How the calls were made is not given here.

Test system: CCRIS mutagenicity, Ames/micronucleus/aberration tests
Assay: CCRIS mutagenicity studies
[1] = Test System: AMES SALMONELLA TYPHIMURIUM, Strain/Indicator: TA98, Metabolic Activation: NONE, Method: STANDARD PLATE
[2] = Test System: AMES SALMONELLA TYPHIMURIUM, Strain/Indicator: TA100, Metabolic Activation: NONE, Method: STANDARD PLATE
[3] = Test System: AMES SALMONELLA TYPHIMURIUM, Strain/Indicator: TA1535, Metabolic Activation: NONE, Method: STANDARD PLATE
[4] = Test System: AMES SALMONELLA TYPHIMURIUM, Strain/Indicator: TA1537, Metabolic Activation: NONE, Method: STANDARD PLATE

COc1ccc(-c2coc3cc(O)cc(O)c3c2=O)cc1
mutagenic call (Test System: AMES SALMONELLA TYPHIMURIUM, Strain/Indicator: TA98, Metabolic Activation: HAMSTER, LIVER, S-9, AROCLOR 1254, Method: STANDARD PLATE): inactive; negative | mutagenic call [1]: inactive; negative | mutagenic call (Test System: AMES SALMONELLA TYPHIMURIUM, Strain/Indicator: TA98, Metabolic Activation: RAT, LIVER, S-9, AROCLOR 1254, Method: STANDARD PLATE): inactive; negative | mutagenic call (Test System: AMES SALMONELLA TYPHIMURIUM, Strain/Indicator: TA100, Metabolic Activation: HAMSTER, LIVER, S-9, AROCLOR 1254, Method: STANDARD PLATE): inactive; negative | mutagenic call [2]: inactive; negative | mutagenic call (Test System: AMES SALMONELLA TYPHIMURIUM, Strain/Indicator: TA100, Metabolic Activation: RAT, LIVER, S-9, AROCLOR 1254, Method: STANDARD PLATE): inactive; negative | mutagenic call (Test System: AMES SALMONELLA TYPHIMURIUM, Strain/Indicator: TA1535, Metabolic Activation: HAMSTER, LIVER, S-9, AROCLOR 1254, Method: STANDARD PLATE): inactive; negative | mutagenic call [3]: inactive; negative | mutagenic call (Test System: AMES SALMONELLA TYPHIMURIUM, Strain/Indicator: TA1535, Metabolic Activation: RAT, LIVER, S-9, AROCLOR 1254, Method: STANDARD PLATE): inactive; negative | mutagenic call (Test System: AMES SALMONELLA TYPHIMURIUM, Strain/Indicator: TA1537, Metabolic Activation: HAMSTER, LIVER, S-9, AROCLOR 1254, Method: STANDARD PLATE): inactive; negative | mutagenic call [4]: inactive; negative | mutagenic call (Test System: AMES SALMONELLA TYPHIMURIUM, Strain/Indicator: TA1537, Metabolic Activation: RAT, LIVER, S-9, AROCLOR 1254, Method: STANDARD PLATE): inactive; negative | mutagenic call (Test System: AMES SALMONELLA TYPHIMURIUM, Strain/Indicator: TA1538, Metabolic Activation: HAMSTER, LIVER, S-9, AROCLOR 1254, Method: STANDARD PLATE): inactive; negative | mutagenic call (Test System: AMES SALMONELLA TYPHIMURIUM, Strain/Indicator: TA1538, Metabolic Activation: NONE, Method: STANDARD PLATE): inactive; negative | mutagenic call (Test System: AMES SALMONELLA TYPHIMURIUM, Strain/Indicator: TA1538, Metabolic Activation: RAT, LIVER, S-9, AROCLOR 1254, Method: STANDARD PLATE): inactive; negative | mutagenic call (Test System: MOUSE LYMPHOMA, Strain/Indicator: L5178Y (TK+/TK-), Metabolic Activation: NONE, Method: SUSPENSION/PLATE): active; positive. reevaluation of results: inconclusive | mutagenic call (Test System: MOUSE LYMPHOMA, Strain/Indicator: L5178Y (TK+/TK-), Metabolic Activation: RAT, LIVER, S-9, AROCLOR 1254, Method: SUSPENSION/PLATE): active; positive. reevaluation of results: positive | mutagenic call (Test System: SYRIAN HAMSTER EMBRYO CELLS, Strain/Indicator: HPRT/6-THIOGUANINE, Metabolic Activation: NONE, Method: PLATE): inactive; negative

[N-]=[N+]=Nc1ccc2c(Nc3ccc(C(=O)O)cc3)c3ccccc3nc2c1
mutagenic call [4]: active; positive

CC(CCl)OC(C)CCl (centres undefined)
mutagenic call (End Point: IN VITRO CHROMOSOMAL ABERRATIONS, Test System: CHINESE HAMSTER OVARY CELLS, Metabolic Activation: NONE): inactive; negative; precipitation occurred at all doses | mutagenic call (End Point: IN VITRO CHROMOSOMAL ABERRATIONS, Test System: CHINESE HAMSTER OVARY CELLS, Metabolic Activation: RAT, LIVER, S-9, AROCLOR 1254): active; positive; precipitation occurred at 497, 730 and 993 ug/ml

Cc1ccc2nsc(N)c2c1
mutagenic call [1]: inactive; negative | mutagenic call (Test System: AMES SALMONELLA TYPHIMURIUM, Strain/Indicator: TA98, Metabolic Activation: S-9, Method: STANDARD PLATE): active; positive | mutagenic call [2]: inactive; negative | mutagenic call (Test System: AMES SALMONELLA TYPHIMURIUM, Strain/Indicator: TA100, Metabolic Activation: S-9, Method: STANDARD PLATE): active; positive | mutagenic call [3]: inactive; negative | mutagenic call (Test System: AMES SALMONELLA TYPHIMURIUM, Strain/Indicator: TA1535, Metabolic Activation: S-9, Method: STANDARD PLATE): inactive; negative | mutagenic call [4]: inactive; negative | mutagenic call (Test System: AMES SALMONELLA TYPHIMURIUM, Strain/Indicator: TA1537, Metabolic Activation: S-9, Method: STANDARD PLATE): active; positive
